Like-named read-outs stand apart in the source and are kept apart here.
How the values were obtained:
HA1 adenosine receptor = target: T1, HA1 adenosine receptor (Homo sapiens, UniProt P30542); test: Human adenosine A1 receptor affinity (Ki hA1); format: binding
T1 sequence (P30542 1-326): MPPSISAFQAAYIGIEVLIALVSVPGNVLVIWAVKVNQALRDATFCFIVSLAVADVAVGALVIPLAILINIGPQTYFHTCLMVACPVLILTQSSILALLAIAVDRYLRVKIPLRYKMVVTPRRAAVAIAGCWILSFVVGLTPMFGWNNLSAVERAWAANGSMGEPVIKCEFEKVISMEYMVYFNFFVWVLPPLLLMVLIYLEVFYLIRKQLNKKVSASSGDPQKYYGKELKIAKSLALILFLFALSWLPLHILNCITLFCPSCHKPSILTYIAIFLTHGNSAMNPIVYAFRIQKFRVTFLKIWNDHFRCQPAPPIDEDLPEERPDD

[1] = target: T2, human adenosine A2A receptor (Homo sapiens, UniProt P29274); test: Human adenosine A2A receptor [3H]-SCH-58261 binding assay; conditions: for Ki: affinity to human adenosine A2A receptor, read-out: Ki HA2A; for selectivity (A1/A2a): calculated ratio of the affinity to the HA1 receptor to the HA2a receptor
T2 construct: expressed in transfected cells; host or cells: CHO cells, Semliki Forest virus expression system; membrane preparation
T2 sequence (P29274 whole entry): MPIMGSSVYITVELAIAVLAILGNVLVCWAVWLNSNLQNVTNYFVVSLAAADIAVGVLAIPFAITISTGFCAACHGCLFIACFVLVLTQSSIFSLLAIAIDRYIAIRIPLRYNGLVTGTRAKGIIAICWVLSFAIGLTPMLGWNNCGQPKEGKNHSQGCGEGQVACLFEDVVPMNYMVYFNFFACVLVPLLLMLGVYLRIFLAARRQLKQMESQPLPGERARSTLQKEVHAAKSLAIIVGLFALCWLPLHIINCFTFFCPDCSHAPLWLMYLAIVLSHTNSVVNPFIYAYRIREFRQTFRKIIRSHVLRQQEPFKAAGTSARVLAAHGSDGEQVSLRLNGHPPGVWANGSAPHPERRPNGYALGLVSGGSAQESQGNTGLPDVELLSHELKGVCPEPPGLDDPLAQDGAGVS
Procedure: Human Adenosine A2A Receptor
The human adenosine A2A receptor was recombinantly expressed in chinese hamster ovary (CHO) cells using the semliki forest virus expression system. Cells were harvested, washed twice by centrifugation, homogenized and again washed by centrifugation. The final washed membrane pellet was suspended in a Tris (50 mM) buffer containing 120 mM NaCl, 5 mM KCl, 2 mM CaCl2 and 10 MM MgCl2 (pH 7.4) (buffer A). […] Compounds were tested at 10 concentrations from 10 μM-0.3 nM. All assays were conducted in duplicate and repeated at least two times. Assay plates were incubated for 1 hour at room temperature before centrifugation and then bound ligand determined using a Packard Topcount scintillation counter. IC50 values were calculated using a non-linear curve fitting program and Ki values calculated using the Cheng-Prussoff equation.

[2] = affinity to human adenosine A1 receptor

Row | Structure (SMILES) | Ki (HA1 adenosine receptor; [2]) | Ki [1] | selectivity (A1/A2a) [1] | Ki (HA1 adenosine receptor)
1 | CCN(C(=O)c1cc(N)n2nc(-c3ccc(C)s3)nc2c1)C1CCCCC1 [Example 24, 5-Amino-2-(5-methyl-thiophen-2-yl)-[1,2,4]triazolo[1,5-a]pyridine-7-carboxylic acid cyclohexyl-ethyl-amide] | 247 nM | 8.9 nM | 27.8 | 
2 | Nc1cc(C(=O)N2CCCC2)cc2nc(-c3nccs3)nn12 [Example 25, (5-Amino-2-thiazol-2-yl-[1,2,4]triazolo[1,5-a]pyridin-7-yl)-pyrrolidin-1-yl-methanone] | 3100 nM | 50.4 nM | 61.5 | 
3 | CC(C)N(Cc1ccccc1)C(=O)c1cc(N)n2nc(-c3ccc(Br)o3)nc2c1 [Example 26, 5-Amino-2-(5-bromo-furan-2-yl)-[1,2,4]triazolo[1,5-a]pyridine-7-carboxylic acid benzyl-isopropyl-amide] | 30.1 nM | 2.3 nM | 13.0 | 
4 | CCN(Cc1ccccc1)C(=O)c1cc(N)n2nc(-c3ccccn3)nc2c1 [Example 29, 5-Amino-2-pyridin-2-yl-[1,2,4]triazolo[1,5-a]pyridine-7-carboxylic acid benzyl-ethyl-amide] | 244 nM | 15.9 nM | 15.3 | 
5 | Nc1cc(C(=O)N2CCc3ccccc3C2)cc2nc(-c3ccccn3)nn12 [Example 30, (5-Amino-2-pyridin-2-yl-[1,2,4]triazolo[1,5-a]pyridin-7-yl)-(3,4-dihydro-1H-isoquinolin-2-yl)-methanone] | 2140 nM | 212 nM | 10.1 | 
6 | CCN(C(=O)c1cc(N)n2nc(-c3ccccn3)nc2c1)C1CCCCC1 [Example 31, 5-Amino-2-pyridin-2-yl-[1,2,4]triazolo[1,5-a]pyridine-7-carboxylic acid cyclohexyl-ethyl-amide] | 1130 nM | 49.6 nM | 22.7 | 
7 | CN(Cc1ccccc1)C(=O)c1cc(N)n2nc(-c3ccccn3)nc2c1 [Example 32, 5-Amino-2-pyridin-2-yl-[1,2,4]triazolo[1,5-a]pyridine-7-carboxylic acid benzyl-methyl-amide] | 288 nM | 28.6 nM | 10.1 | 
8 | CN(C(=O)c1cc(N)n2nc(-c3ccccn3)nc2c1)C1CCCCC1 [Example 33, 5-Amino-2-pyridin-2-yl-[1,2,4]triazolo[1,5-a]pyridine-7-carboxylic acid cyclohexyl-methyl-amide] | 1170 nM | 87 nM | 13.5 | 
9 | Nc1cc(C(=O)N2CCCCC2)cc2nc(-c3ccccn3)nn12 [Example 34, (5-Amino-2-pyridin-2-yl-[1,2,4]triazolo[1,5-a]pyridin-7-yl)-piperidin-1-yl-methanone] | 5980 nM | 154 nM | 38.8 | 
10 | CCN(CC)C(=O)c1cc(N)n2nc(-c3ccccn3)nc2c1 [Example 35, 5-Amino-2-pyridin-2-yl-[1,2,4]triazolo[1,5-a]pyridine-7-carboxylic acid diethylamide] | 2920 nM | 106 nM | 27.5 | 
11 | CCCCN(Cc1ccccc1)C(=O)c1cc(N)n2nc(-c3ccccn3)nc2c1 [Example 36, 5-Amino-2-pyridin-2-yl-[1,2,4]triazolo[1,5-a]pyridine-7-carboxylic acid benzyl-butyl-amide] | 199 nM | 13.1 nM | 15.2 | 
12 | Nc1cc(C(=O)NCc2ccccc2Br)cc2nc(-c3ccccn3)nn12 [Example 38, 5-Amino-2-pyridin-2-yl-[1,2,4]triazolo[1,5-a]pyridine-7-carboxylic acid 2-bromo-benzylamide] | 109 nM | 23.8 nM | 4.6 | 
13 | Nc1cc(C(=O)NCc2ccccc2Cl)cc2nc(-c3ccccn3)nn12 [Example 39, 5-Amino-2-pyridin-2-yl-[1,2,4]triazolo[1,5-a]pyridine-7-carboxylic acid 2-chloro-benzylamide] | 69.8 nM | 16.8 nM | 4.2 | 
14 | Nc1cc(C(=O)NCCc2ccccc2F)cc2nc(-c3ccccn3)nn12 [Example 40, 5-Amino-2-pyridin-2-yl-[1,2,4]triazolo[1,5-a]pyridine-7-carboxylic acid [2-(2-fluoro-phenyl)-ethyl]-amide] | 204 nM | 49.9 nM | 4.1 | 
15 | COc1ccccc1CNC(=O)c1cc(N)n2nc(-c3ccccn3)nc2c1 [Example 41, 5-Amino-2-pyridin-2-yl-[1,2,4]triazolo[1,5-a]pyridine-7-carboxylic acid 2-methoxy-benzylamide] | 88.1 nM | 21.8 nM | 4.0 | 
16 | Nc1cc(C(=O)NCc2ccc(F)cc2)cc2nc(-c3ccccn3)nn12 [Example 43, 5-Amino-2-pyridin-2-yl-[1,2,4]triazolo[1,5-a]pyridine-7-carboxylic acid 4-fluoro-benzylamide] | 203 nM | 87.7 nM | 2.3 | 
17 | CC(NC(=O)c1cc(N)n2nc(-c3ccccn3)nc2c1)c1ccccc1 (stereo not shown) [Example 44, 5-Amino-2-pyridin-2-yl-[1,2,4]triazolo[1,5-a]pyridine-7-carboxylic acid (1-phenyl-ethyl)-amide] | 120 nM | 44.5 nM | 2.7 | 
18 | Nc1cc(C(=O)N2CCCC2)cc2nc(-c3cccs3)nn12 [Example 128, (5-Amino-2-thiophen-2-yl-[1,2,4]triazolo[1,5-a]pyridin-7-yl)-pyrrolidin-1-yl-methanone] | 1480 nM |  |  | 
19 | CCCN(C)C(=O)c1cc(N)n2nc(-c3ccc(Br)o3)nc2c1 [Example 268, 5-Amino-2-(5-bromo-furan-2-yl)-[1,2,4]triazolo[1,5-a]pyridine-7-carboxylic acid methyl-propyl-amide] | 275 nM |  |  | 
20 | CC1CCCN1C(=O)c1cc(N)n2nc(-c3ccc(Br)o3)nc2c1 (stereo not shown) [Example 270, [5-Amino-2-(5-bromo-furan-2-yl)-[1,2,4]triazolo[1,5-a]pyridin-7-yl]-(2-methyl-pyrrolidin-1-yl)-methanone] | 286 nM |  |  | 
21 | CC1CCCN(C(=O)c2cc(N)n3nc(-c4ccc(Br)o4)nc3c2)C1 (stereo not shown) [Example 295, [5-Amino-2-(5-bromo-furan-2-yl)-[1,2,4]triazolo[1,5-a]pyridin-7-yl]-(3,-methyl-piperidin-1-yl)-methanone] | 130 nM |  |  | 
22 | Nc1cc(C(=O)N2CCSCC2)cc2nc(-c3ccc(Br)o3)nn12 [Example 297, [5-Amino-2-(5-bromo-furan-2-yl)-[1,2,4]triazolo[1,5-a]pyridin-7-yl]-thiomorpholin-4-yl-methanone] | 253 nM |  |  | 
23 | CN(CCc1ccccc1)C(=O)c1cc(N)n2nc(-c3ccc(Br)o3)nc2c1 [Example 306, 5-Amino-2-(5-bromo-furan-2-yl)-[1,2,4]triazolo[1,5-a]pyridine-7-carboxylic acid methyl-phenethyl-amide] | 87.8 nM |  |  | 
24 | CC1CCCCN1C(=O)c1cc(N)n2nc(-c3ccc(Br)o3)nc2c1 (stereo not shown) [Example 336, [5-Amino-2-(5-bromo-furan-2-yl)-[1,2,4]triazolo[1,5-a]pyridin-7-yl]-(2-methyl-piperidin-1-yl)-methanone] | 65.7 nM |  |  | 
25 | CCN(CCc1ccccn1)C(=O)c1cc(N)n2nc(-c3ccc(Br)o3)nc2c1 [Example 352, 5-Amino-2-(5-bromo-furan-2-yl)-[1,2,4]triazolo[1,5-a]pyridine-7-carboxylic acid ethyl-(2-pyridin-2-yl-ethyl)-amide] | 144 nM |  |  | 
26 | CCN(CC)C(=O)C1CCCN(C(=O)c2cc(N)n3nc(-c4ccc(Br)o4)nc3c2)C1 (stereo not shown) [Example 356, 1-[5-Amino-2-(5-bromo-furan-2-yl)-[1,2,4]triazolo[1,5-a]pyridin-7-carbonyl]-piperidine-3-carboxylic acid diethylamide] | 1060 nM |  |  | 
27 | CN(C)C(=O)CN(C)C(=O)c1cc(N)n2nc(-c3ccc(Br)o3)nc2c1 [Example 384, 5-Amino-2-(5-bromo-furan-2-yl)-[1,2,4]triazolo[1,5-a]pyridine-7-carboxylic acid dimethylcarbamoylmethyl-methyl-amide] |  |  |  | 711 nM
28 | COC[C@@H]1CCCN1C(=O)c1cc(N)n2nc(-c3ccc(Br)o3)nc2c1 [Example 385, [5-Amino-2-(5-bromo-furan-2-yl)-[1,2,4]triazolo[1,5-a]pyridin-7-yl]-(S-2-methoxymethyl-pyrrolidin-1-yl)-methanone] |  |  |  | 616 nM
29 | COC[C@H]1CCCN1C(=O)c1cc(N)n2nc(-c3ccc(Br)o3)nc2c1 [Example 386, [5-Amino-2-(5-bromo-furan-2-yl)-[1,2,4]triazolo[1,5-a]pyridin-7-yl]-(R-2-methoxymethyl-pyrrolidin-1-yl)-methanone] |  |  |  | 292 nM
30 | Nc1cc(C(=O)N2CCCC2)cc2nc(-c3ccccn3)nn12 [Example 410, (5-Amino-2-pyridin-2-yl-[1,2,4]triazolo[1,5-a]pyridin-7-yl)-pyrrolidin-1-yl-methanone] |  |  |  | 1450 nM

Reference: patent US6506772B1, “Substituted [1,2,4]triazolo[1,5a]pyridine derivatives with activity as adenosine receptor ligands” (Hoffmann-La Roche Inc., priority 2000, dated 2003)
